Measurements: PubChem BioAssay (NCI)
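Exposure lasted 48 hours, with cells grown in 96-well plates and compounds tested at five concentrations. The concentration for 50% growth inhibition is given as GI50. TGI is the concentration that stops growth completely.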

Tests used:
Test in all cases: NCI anticancer screen, dose series, 48 h
CCRF-CEM leukemia = test system: CCRF-CEM leukemia
HT29 colon = test system: HT29 colon
NCI-H522 lung = test system: NCI-H522 lung
SK-MEL-2 melanoma = test system: SK-MEL-2 melanoma
SK-MEL-28 melanoma = test system: SK-MEL-28 melanoma
UACC-62 melanoma = test system: UACC-62 melanoma
UO-31 renal = test system: UO-31 renal
A498 renal = test system: A498 renal
IGROV1 ovarian = test system: IGROV1 ovarian
SK-MEL-5 melanoma = test system: SK-MEL-5 melanoma

| Compound | TGI (CCRF-CEM leukemia) [µM] | TGI (HT29 colon) [µM] | TGI (NCI-H522 lung) [µM] | TGI (SK-MEL-2 melanoma) [µM] | TGI (SK-MEL-28 melanoma) [µM] | TGI (UACC-62 melanoma) [µM] | TGI (UO-31 renal) [µM] | GI50 (A498 renal) [µM] | TGI (A498 renal) [µM] | GI50 (CCRF-CEM leukemia) [µM] | GI50 (HT29 colon) [µM] | GI50 (IGROV1 ovarian) [µM] | TGI (IGROV1 ovarian) [µM] | GI50 (NCI-H522 lung) [µM] | GI50 (SK-MEL-2 melanoma) [µM] | GI50 (SK-MEL-28 melanoma) [µM] | GI50 (SK-MEL-5 melanoma) [µM] | TGI (SK-MEL-5 melanoma) [µM] | GI50 (UACC-62 melanoma) [µM] | GI50 (UO-31 renal) [µM] |
| --- | --- | --- | --- | --- | --- | --- | --- | --- | --- | --- | --- | --- | --- | --- | --- | --- | --- | --- | --- | --- |
| CC(C)(C)c1cc(C(=O)O)c(C(c2ccccc2)c2ccccc2C(=O)O)c(C(=O)O)c1 (stereo not drawn) | > 100 | > 100 | 5.16 | > 100 | > 100 | > 100 | > 100 | – | – | – | – | – | – | – | – | – | – | – | – | – |
| COc1cc(/C=C2\C(=O)Nc3ccc(Br)cc32)cc(OC)c1OC | > 100 | > 100 | > 50.9 | 55.2 | > 100 | > 100 | > 100 | 13.7 | > 55.8 | 4.82 | 3.82 | 2.29 | 17 | 3.29 | 12.9 | 58.9 | 6.33 | > 100 | 5.96 | 6.73 |
| CCn1c(-c2nonc2N)nc2c(C#CC(C)(C)O)ncc(OC[C@@H]3CCCN3)c21 | > 25 | > 19.7 | 6.71 | 15 | > 25 | > 25 | > 25 | 0.136 | 1.97 | 2.33 | 5.15 | 0.676 | > 25 | 3.1 | 4.56 | 12.1 | 10.5 | > 25 | 7.2 | 13.4 |
| CCCCOP1(=O)C=CC(Cl)=C(C)C1 (stereo not drawn) | 35 | 45 | – | 50.8 | 31.7 | 54.4 | > 100 | – | – | – | – | – | – | – | – | – | – | – | – | – |
| COc1ccc(-c2nn(-c3cccc(Cl)c3)cc2-c2cc(-c3cccs3)no2)cc1 | > 100 | 15.1 | 18.4 | 10.9 | 17.8 | 20 | 11.8 | 1.81 | 14.6 | 3.84 | 3.85 | 4 | 16.2 | 4.27 | 3.34 | 4.93 | 4.74 | 17.3 | 3.55 | 2.56 |
| O=C1Cc2ccccc2CCc2ccccc21 | > 100 | > 100 | > 100 | > 100 | > 100 | > 100 | > 100 | – | > 100 | – | – | – | > 100 | – | – | – | – | > 100 | – | – |
| Nc1nc(Cl)cc(NCCCCCCNc2cc(Cl)nc(N)n2)n1 | > 100 | > 100 | > 100 | > 100 | – | 97.8 | > 100 | – | – | – | – | – | > 100 | – | – | – | – | > 100 | – | – |
| CC[C@H](C)[C@H](NC(=O)N[C@@H](C)c1ccccc1)C(=O)N(C)[C@H](C[C@@H](OC(C)=O)c1nc(C(=O)N[C@@H](Cc2ccccc2)C[C@H](C)C(=O)OC)cs1)C(C)C | > 100 | > 100 | 42.1 | > 100 | > 100 | > 100 | > 100 | – | – | 23.9 | 28.3 | 20.9 | > 100 | 13 | 18.3 | 47 | 13.1 | 40.2 | 6.96 | 25.5 |
| Cc1cc(S(N)(=O)=O)c(S/C(=N\NS(=O)(=O)c2ccccc2)c2ccc(Cl)c(Cl)c2)cc1Cl | > 100 | – | > 100 | > 100 | > 100 | > 100 | > 100 | 35 | 87.1 | 86 | – | 44 | > 100 | 89 | > 100 | 84.1 | 40.6 | > 100 | 34.7 | 54.5 |
| C=CCN(N=O)C(=O)ON1C(=O)CCC1=O | > 100 | > 100 | > 100 | > 100 | > 100 | > 100 | > 100 | – | > 100 | – | – | – | > 100 | – | – | – | – | – | – | – |
| O=C(O)C(Cc1c[nH]c2ccccc12)N1C(=O)c2ccccc2C1=O (stereo not drawn) | – | > 100 | > 100 | > 100 | > 100 | > 100 | > 100 | – | > 100 | – | – | – | > 100 | – | – | – | – | > 100 | – | – |
| Cc1ccc(NCCNCC(O)CO)c2c(=O)c3ccccc3sc12 (stereo not drawn) | 4.55 | 3.04 | 4.09 | 3.49 | 3.3 | 3.08 | 2.48 | – | – | 1.86 | 1.41 | 1.61 | 3.43 | 1.91 | 1.77 | 1.69 | 1.57 | 2.93 | 1.54 | 1.12 |
| Cc1cc(C(=O)Nc2cc(Nc3ncccc3-c3ncnc4nc[nH]c34)ccc2F)cc(C(C)(C)C#N)c1 | > 100 | > 100 | > 100 | 2.04 | > 100 | – | > 100 | 0.0748 | 0.491 | 3.47 | 0.0739 | 0.694 | > 100 | 3.54 | 0.0866 | 0.0402 | 1.38 | 13.7 | – | 0.239 |
| CCCCCCCCCCCCCCCCCCNC(=O)[C@H]1CSC(c2ccc(F)c(OC)c2)N1 (stereo partly drawn) | 1.74 | 2.12 | – | 1.67 | 1.33 | 1.28 | > 50 | > 50 | > 50 | 0.284 | 1.03 | 1.43 | 5.05 | – | 0.887 | 0.647 | 0.812 | 1.52 | 0.639 | 5.57 |
| N#CC1=C(N)NC(=S)C(C#N)C12Nc1ccccc1S2 (stereo not drawn) | – | 77.7 | 35.6 | 58.1 | 56.7 | 33.4 | 38.5 | – | – | – | 29.3 | 29.3 | 72.5 | 16.2 | 29.3 | 24.3 | 12.8 | 26.7 | 18 | 17.6 |
| CC12O[Te]34OC1(C)C(C)(O3)C2(C)O4 | – | 30.3 | 23.6 | 29.8 | 23.3 | 87.5 | 23.5 | – | > 8.75 | – | – | – | 24.9 | – | – | – | – | – | – | – |
